The record followed here is patent EP4578856A1, “HETEROCYCLIC COMPOUND” (Ubience Inc., priority 2022, dated 2024).

Assay [1] deals with T1, ROCK2 protein (Homo sapiens, UniProt O75116). The assay can be described thus: ROCK2 kinase inhibitory activity, mobility shift assay (MSA, Carna Biosciences). Type of assay: biochemical. Also on record: GST (N); purchased Carna Biosciences, Inc; host or cells: baculovirus expression system. As to conditions: for inhibition at 0.03 µM: evaluation concentration 0.03 µM; for inhibition at 0.03 µM / inhibition at 10 µM / inhibition at 1 µM: read-out: ROCK2 inhibition rate; for inhibition at 10 µM: evaluation concentration 10 µM; for inhibition at 1 µM: evaluation concentration 1 µM; for IC50: ROCK2 kinase. The procedure:
The ROCK2 kinase inhibitory activity was measured using a mobility shift assay (MSA) provided by Carna Biosciences, Inc.
The test compound was dissolved in DMSO and further diluted with DMSO to prepare a solution having a concentration 100 times the evaluation concentration. The solution was further diluted 25 times with an assay buffer (20 mmol/L HEPES, 0.01% Triton (registered trademark) X-100, 1 mmol/L DTT, pH 7.5) to obtain a test compound solution.
The human ROCK2 kinase was expressed by fusing the catalytic domain (1 to 553 amino acids of Accession No. NP_004841.2) with GST at the N-terminus using the baculovirus expression system. GST-ROCK2 was purified by glutathione sepharose chromatography.
A 4-fold concentration substrate (LIMKtide, 1000 nmol/L) /ATP (5 µmol/L)/metal solution (Mg, 5 mmol/L) was prepared with kit buffer (20 mmol/L HEPES, 0.01% Triton (registered trademark) X-100, 5 mmol/L DTT, pH 7.5). A 2-fold concentration kinase solution was prepared with assay buffer. 5 µL of a 4-fold concentration test compound solution, 5 µL of a 4-fold concentration substrate/ATP/metal solution, and 10 µL of a 2-fold concentration kinase solution were mixed in a well of a polypropylene 384 well plate, and the mixture was reacted at room temperature for 1 hour. 70 µL of termination buffer (127 mmol/L HEPES, 0.01% Triton (registered trademark) X-100, 26.7 mmol/L EDTA-2Na, 1% DMSO, pH 7.5) was added to stop the reaction. The substrate peptide and the phosphorylated peptide in the reaction solution were separated and quantified using a LabChip (trademark) system (Perkin Elmer).
The kinase reaction was evaluated by the product ratio (P/(P + S)) calculated from the substrate peptide peak height (S) and the phosphorylated peptide peak height (P).
The average signal of the control well including all the reaction components was set to 0% suppression, the average signal of the background well (no enzyme added) was set to 100% suppression, and the inhibition rate was calculated from the average signal of the test compound test well.
The ROCK2 inhibition rate and the evaluation concentration of the test compound are shown in Table 4-1, and the IC50 value of the inhibitory activity is shown in Table 4-2. […]
Target sequence in this assay (O75116 1-553): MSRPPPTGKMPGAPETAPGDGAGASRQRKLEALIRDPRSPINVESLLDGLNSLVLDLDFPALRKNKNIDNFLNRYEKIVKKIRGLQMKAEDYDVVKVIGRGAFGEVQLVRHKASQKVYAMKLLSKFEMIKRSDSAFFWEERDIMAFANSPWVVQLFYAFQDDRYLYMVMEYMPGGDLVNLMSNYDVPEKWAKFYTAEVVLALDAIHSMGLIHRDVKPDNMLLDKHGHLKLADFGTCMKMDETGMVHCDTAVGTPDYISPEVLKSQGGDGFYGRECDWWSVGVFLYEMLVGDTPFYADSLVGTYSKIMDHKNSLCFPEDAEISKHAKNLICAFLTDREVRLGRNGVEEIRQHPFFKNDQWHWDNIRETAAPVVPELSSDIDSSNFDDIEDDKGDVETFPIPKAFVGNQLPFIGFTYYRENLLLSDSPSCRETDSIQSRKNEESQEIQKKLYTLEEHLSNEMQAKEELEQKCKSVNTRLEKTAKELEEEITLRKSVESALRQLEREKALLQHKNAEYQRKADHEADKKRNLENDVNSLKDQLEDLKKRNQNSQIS

In assay [2] the target is T1, ROCK2 protein. The assay can be described thus: Degradation inducing activity of ROCK2 protein in HUVEC cells, Western blotting (Simple Western JESS). It counts as cell-based. Also on record: endogenous in cells; host or cells: HUVEC (ATCC CRL-1730). Particulars: HUVEC, 24 h; for inhibition at 1 µM: degradation rate at 1 µM; for inhibition at 10 µM: degradation rate at 10 µM. In a few lines:
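HUVEC cells treated 24 h with compound at 10 µM or 1 µM, then lysed; ROCK2 quantified by capillary Western (Simple Western JESS) using rabbit mAb D1B1, normalized to total loaded protein. Degradation rate (%) calculated relative to DMSO control set at 100%, binned A ≥75%, B 50–75%, C 25–50%, D <25%.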
Target sequence in this assay (O75116 whole entry): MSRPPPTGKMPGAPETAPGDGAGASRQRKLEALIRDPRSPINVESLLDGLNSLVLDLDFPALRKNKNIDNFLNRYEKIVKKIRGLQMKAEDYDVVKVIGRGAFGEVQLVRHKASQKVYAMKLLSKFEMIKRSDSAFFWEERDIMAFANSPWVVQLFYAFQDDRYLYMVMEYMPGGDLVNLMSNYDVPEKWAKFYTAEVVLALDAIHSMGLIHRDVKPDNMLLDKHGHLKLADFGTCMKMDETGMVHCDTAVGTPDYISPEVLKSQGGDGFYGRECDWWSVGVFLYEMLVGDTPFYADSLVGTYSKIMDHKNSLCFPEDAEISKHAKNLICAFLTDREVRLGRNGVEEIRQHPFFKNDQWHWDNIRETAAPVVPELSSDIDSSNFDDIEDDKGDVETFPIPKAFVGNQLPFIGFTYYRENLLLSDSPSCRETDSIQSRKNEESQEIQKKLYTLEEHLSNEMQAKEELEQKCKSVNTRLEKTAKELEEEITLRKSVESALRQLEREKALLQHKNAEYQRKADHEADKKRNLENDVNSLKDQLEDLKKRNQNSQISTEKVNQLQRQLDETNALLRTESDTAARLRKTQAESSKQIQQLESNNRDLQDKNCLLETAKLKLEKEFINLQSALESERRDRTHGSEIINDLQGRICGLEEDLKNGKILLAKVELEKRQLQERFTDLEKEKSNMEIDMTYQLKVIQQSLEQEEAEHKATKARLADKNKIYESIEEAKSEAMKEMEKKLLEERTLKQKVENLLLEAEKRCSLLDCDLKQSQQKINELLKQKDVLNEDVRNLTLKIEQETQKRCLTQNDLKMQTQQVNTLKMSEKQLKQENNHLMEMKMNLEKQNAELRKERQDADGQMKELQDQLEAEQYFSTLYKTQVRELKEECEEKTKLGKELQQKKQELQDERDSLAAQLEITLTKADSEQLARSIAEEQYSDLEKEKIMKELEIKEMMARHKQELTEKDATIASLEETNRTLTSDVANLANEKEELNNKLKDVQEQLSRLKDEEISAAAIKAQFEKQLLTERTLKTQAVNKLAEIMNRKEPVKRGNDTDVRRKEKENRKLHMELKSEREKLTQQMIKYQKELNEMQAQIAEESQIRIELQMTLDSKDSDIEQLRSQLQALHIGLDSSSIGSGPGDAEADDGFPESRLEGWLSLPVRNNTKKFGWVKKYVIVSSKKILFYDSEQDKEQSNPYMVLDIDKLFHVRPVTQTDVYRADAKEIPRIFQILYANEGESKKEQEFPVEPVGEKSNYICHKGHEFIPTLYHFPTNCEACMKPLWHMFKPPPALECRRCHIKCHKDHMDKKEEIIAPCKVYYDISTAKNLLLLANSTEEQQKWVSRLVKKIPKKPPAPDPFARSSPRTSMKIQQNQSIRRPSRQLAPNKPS

Molecules are shown by their SMILES.

As to `COC[C@H]1CN[C@H](C)CN1CC(=O)N1CC(C)(C)c2nc(CN(C)CCOCCNC[C@@H](C(=O)Nc3ccc4cnccc4c3)c3ccccc3)c(Cc3ccc(F)cc3)cc21` [Example 36, (S)-3-((2-(2-(((6-(4-Fluorobenzyl)-1-(2-((2R,5R)-2-(methoxymethyl)-5-methylpiperazin-1-yl)acetyl)-3,3-dimethyl-2,3-dihydro-1H-pyrrolo[3,2-b]pyridin-5-yl)methyl)(methyl)amino)ethoxy)ethyl)amino)-N-(isoquinolin-6-yl)-2-phenylpropanamide], the inhibition at 0.03 µM at ROCK2 protein [1] was in the range of 50 to 75%. On ROCK2 protein [2], this compound showed an inhibition at 1 µM of 25 to 50% and an inhibition at 10 µM of at least 75%.
Regarding `C[C@@H]1CN(CC(=O)N2CC(C)(C)c3ncc(Cc4ccc(F)cc4)cc32)[C@@H](CN(C)CCOCCOCCOCCN[C@H](C)c2ccc(C(=O)Nc3ccncc3)cc2)CN1` [Example 3, 4-((R)-1-((2R,5R)-1-(2-(6-(4-Fluorobenzyl)-3,3-dimethyl-2,3-dihydro-1H-pyrrolo[3,2-b]pyridin-1-yl)-2-oxoethyl)-5-methylpiperazin-2-yl)-2-methyl-5,8,11-trioxa-2,14-diazahexadecan-15-yl)-N-(pyridin-4-yl)benzamide], on ROCK2 protein [1], the inhibition at 10 µM is at least 75%. On ROCK2 protein [2], this compound showed an inhibition at 1 µM of 50 to 75% and an inhibition at 10 µM of at least 75%.
With `C[C@@H]1CN(CC(=O)N2CC(C)(C)c3ncc(Cc4ccc(F)cc4)cc32)[C@@H](CN(C)CCOCCOCCN[C@H](Cc2cccc(F)c2)C(=O)Nc2ccc(-c3ccncc3)cc2)CN1` [Example 9, (R)-12-(3-Fluorobenzyl)-1-((2R,5R)-1-(2-(6-(4-fluorobenzyl)-3,3-dimethyl-2,3-dihydro-1H-pyrrolo[3,2-b]pyridin-1-yl)-2-oxoethyl)-5-methylpiperazin-2-yl)-2-methyl-N-(4-(pyridin-4-yl)phenyl)-5,8-dioxa-2,11-diazatridecan-13-amide], the inhibition at 1 µM at ROCK2 protein [1] was 25 to 50%; against ROCK2 protein [2], under 25%. The same compound showed an inhibition at 10 µM against ROCK2 protein [2] of at least 75%.
Take `COC[C@H]1CN[C@H](C)CN1CC(=O)N1CC(C)(C)c2ncc(Cc3ccccc3OCCOCCOCCOCCNC[C@@H](C(=O)Nc3ccc4cnccc4c3)c3ccccc3)cc21` [Example 80, (S)-N-(Isoquinolin-6-yl)-1-(2-((1-(2-((2R,5R)-2-(methoxymethyl)-5-methylpiperazin-1-yl)acetyl)-3,3-dimethyl-2,3-dihydro-1H-pyrrolo[3,2-b]pyridin-6-yl)methyl)phenoxy)-14-phenyl-3,6,9-trioxa-12-azapentadecan-15-amide]: the inhibition at 0.03 µM at ROCK2 protein [1] lay in the range of 25 to 50%. In addition, on ROCK2 protein [2], the inhibition at 1 µM is 50 to 75% and the inhibition at 10 µM was at least 75%.
On to `COCCOCCN[C@H](Cc1cccc(F)c1)C(=O)Nc1ccc(-c2ccncc2)cc1` [Ref.Example 12, (R)-3-(3-Fluorophenyl)-2-((2-(2-methoxyethoxy)ethyl)amino)-N-(4-(pyridin-4-yl)phenyl)propanamide, reference compound], for which the IC50 at ROCK2 protein [1] fell in the range of 300 to 3000 nM.
Take `COCCOCCCNC[C@@H](C(=O)Nc1ccc2cnccc2c1)c1ccccc1` [Ref.Example 15, (S)-N-(Isoquinolin-6-yl)-3-((3-(2-methoxyethoxy)propyl)amino)-2-phenylpropanamide, reference compound]: the half-maximal inhibitory concentration (IC50) at ROCK2 protein [1] was under 30 nM.
On to `COC[C@H]1CN[C@H](C)CN1CC(=O)N1CC(C)(C)c2nc(CN(C)CCOCCOCCOCCN[C@H](C)c3ccc(C(=O)Nc4ccncc4)cc3)c(Cc3ccc(F)cc3)cc21` [Example 24, 4-((R)-1-(6-(4-Fluorobenzyl)-1-(2-((2R,5R)-2-(methoxymethyl)-5-methylpiperazin-1-yl)acetyl)-3,3-dimethyl-2,3-dihydro-1H-pyrrolo[3,2-b]pyridin-5-yl)-2-methyl-5,8,11-trioxa-2,14-diazahexadecan-15-yl)-N-(pyridin-4-yl)benzamide], for which the inhibition at 10 µM on ROCK2 protein [1] was at least 75%. On ROCK2 protein [2], this compound displayed an inhibition at 1 µM of at least 75% and an inhibition at 10 µM of 50 to 75%.
Turning to `COCCOCCCN[C@H](Cc1cccc(F)c1)C(=O)Nc1ccc(-c2ccncc2)cc1` [Ref.Example 13, (R)-3-(3-Fluorophenyl)-2-((3-(2-methoxyethoxy)propyl)amino)-N-(4-(pyridin-4-yl)phenyl)propanamide, reference compound], on ROCK2 protein [1], the IC50 lay within 30 to 300 nM.
On to `COC[C@H]1CN[C@H](C)CN1CC(=O)N1CC(C)(C)c2ncc(Cc3cccc(OCCOCCOCCOCCOCCOCCOCCOCCN[C@H](Cc4cccc(F)c4)C(=O)Nc4ccc(-c5ccncc5)cc4)c3)cc21` [Example 56, (R)-2-(3-Fluorobenzyl)-26-(3-((1-(2-((2R,5R)-2-(methoxymethyl)-5-methylpiperazin-1-yl)acetyl)-3,3-dimethyl-2,3-dihydro-1H-pyrrolo[3,2-b]pyridin-6-yl)methyl)phenoxy)-N-(4-(pyridin-4-yl)phenyl)-6,9,12,15,18,21,24-heptaoxa-3-azahexacosanamide], for which the inhibition at 1 µM on ROCK2 protein [1] was under 25%. On ROCK2 protein [2], this compound returned an inhibition at 1 µM of 50 to 75% and an inhibition at 10 µM of 50 to 75%.
For the compound `COCCOCCCN[C@H](C)c1ccc(C(=O)Nc2ccncc2)cc1` [Ref.Example 11, (R)-4-(1-((3-(2-Methoxyethoxy)propyl)amino)ethyl)-N-(pyridin-4-yl)benzamide, reference compound], the IC50 on ROCK2 protein [1] lay within 3000 to 10000 nM.
With `COC[C@H]1CN[C@H](C)CN1CC(=O)N1CC(C)(C)c2nc(CN(C)CCOCCOCCOCCN[C@H](Cc3cccc(F)c3)C(=O)Nc3ccc(-c4ccncc4)cc3)c(Cc3ccc(F)cc3)cc21` [Example 31, (R)-15-(3-Fluorobenzyl)-1-(6-(4-fluorobenzyl)-1-(2-((2R,5R)-2-(methoxymethyl)-5-methylpiperazin-1-yl)acetyl)-3,3-dimethyl-2,3-dihydro-1H-pyrrolo[3,2-b]pyridin-5-yl)-2-methyl-N-(4-(pyridin-4-yl)phenyl)-5,8,11-trioxa-2,14-diazahexadecan-16-amide], the inhibition at 1 µM at ROCK2 protein [1] lay within 25 to 50%. On ROCK2 protein [2], this compound displayed an inhibition at 1 µM of 50 to 75% and an inhibition at 10 µM of 50 to 75%.
Turning to `COCCOCCNC[C@@H](C(=O)Nc1ccc2cnccc2c1)c1ccccc1` [Ref.Example 14, (S)-N-(Isoquinolin-6-yl)-3-((2-(2-methoxyethoxy)ethyl)amino)-2-phenylpropanamide, reference compound], the half-inhibitory concentration (IC50) at ROCK2 protein [1] was under 30 nM.
`C[C@@H]1CN(CC(=O)N2CC(C)(C)c3ncc(Cc4ccc(F)cc4)cc32)[C@@H](CN(C)CCOCCOCCNC[C@@H](C(=O)Nc2ccc3cnccc3c2)c2ccccc2)CN1` [Example 16, (S)-1-((2R,5R)-1-(2-(6-(4-Fluorobenzyl)-3,3-dimethyl-2,3-dihydro-1H-pyrrolo[3,2-b]pyridin-1-yl)-2-oxoethyl)-5-methylpiperazin-2-yl)-N-(isoquinolin-6-yl)-2-methyl-13-phenyl-5,8-dioxa-2,11-diazatetradecan-14-amide]: the inhibition at 0.03 µM at ROCK2 protein [1] was in the range of 50 to 75%. At ROCK2 protein [2], the inhibition at 1 µM fell in the range of 25 to 50% and the inhibition at 10 µM was at least 75%.
On ROCK2 protein [2], `C[C@@H]1CN(CC(=O)N2CC(C)(C)c3ncc(Cc4ccc(F)cc4)cc32)[C@@H](CN(C)CCOCCOCCOCCOCCN[C@H](C)c2ccc(C(=O)Nc3ccncc3)cc2)CN1` [Example 4, 4-((R)-1-((2R,5R)-1-(2-(6-(4-Fluorobenzyl)-3,3-dimethyl-2,3-dihydro-1H-pyrrolo[3,2-b]pyridin-1-yl)-2-oxoethyl)-5-methylpiperazin-2-yl)-2-methyl-5,8,11,14-tetraoxa-2,17-diazanonadecan-18-yl)-N-(pyridin-4-yl)benzamide] returned an inhibition at 1 µM of at least 75% and an inhibition at 10 µM of at least 75%.
On to `COCCOCCN[C@H](C)c1ccc(C(=O)Nc2ccncc2)cc1` [Ref.Example 10, (R)-4-(1-((2-(2-Methoxyethoxy)ethyl)amino)ethyl)-N-(pyridin-4-yl)benzamide, reference compound], for which, on ROCK2 protein [1], the half-maximal inhibitory concentration (IC50) lay within 3000 to 10000 nM.
